The values that follow come from US20160158179A1, “NANOEMULSION THERAPEUTIC COMPOSITIONS AND METHODS OF USING THE SAME” (THE REGENTS OF THE UNIVERSITY OF MICHIGAN, priority 2008, published 2016).

Values after ≈ are worked out from the molar mass of the structure shown.

Experiment [1] deals with H. influenzae clinical isolates. The experiment in a line: MIC and MBC susceptibility assays (CLSI). In kind it is cell-based, Haemophilus influenzae. As to conditions: for MIC 50: Haemophilus influenzae, all H. influenzae strains of Table 6, control antibiotics.
For experiment [2] the test system is unchanged. Conditions: ATCC H. influenzae 49247 quality control isolate; acceptable QC range; cited from earlier work.
The test system of experiment [3] is Acinetobacter baumannii. The experiment can be described thus: MIC and MBC determination (CLSI, alamar blue). (In general: Alamar Blue is a resazurin reagent that responds to reducing activity.)
Experiment [4] has as its system Pseudomonas aeruginosa. The experiment can be described thus: MIC and MBC determination (CLSI, alamar blue), CF isolates. As to conditions: Pseudomonas.
The subject of a further experiment is Burkholderia cenocepacia. The experiment is described as above.
The test system of experiment [5] is Stenotrophomonas maltophilia. The experiment is described as above.
Experiment [6] deals with Pseudomonas, Burkholderia, Acinetobacter and Stenotrophomonas. The experiment can be described thus: MIC and MBC determination (CLSI, alamar blue), all strains of Example 8.
Experiment [7] has as its system Acinetobacter baumannii. The experiment can be described thus: MIC determination, CLSI microdilution with alamar blue. It is filed as cell-based. As to conditions: A. baumannii (n = 5).
Experiment [8] relates to Stenotrophomonas maltophilia. The description is as above. It is filed as cell-based. Conditions: S. maltophilia (n = 5).
Experiment [9] deals with methicillin-resistant Staphylococcus aureus (MRSA) clinical isolates. The experiment can be described thus: MIC and MBC susceptibility assays (CLSI). In kind it is cell-based. As to conditions: for MIC50 (15) / MIC50(26): silver nitrate column; for MIC50 (15): value at rank 15 of 29; for MIC50(26): value at rank 26 of 29.
The test system of experiment [10] is Pseudomonas aeruginosa. The experiment in a line: MIC determination, CLSI microdilution with alamar blue. In kind it is cell-based. Conditions: Pseudomonas aeruginosa (n = 5); nanoemulsions in the presence of 5 mM EDTA; in µg/mL.

In turn, `CC1(C)S[C@@H]2[C@H](NC(=O)[C@H](N)c3ccccc3)C(=O)N2[C@H]1C(=O)O` [Amp, ampicillin] returned an MIC 50 in experiment [1] of over 32 µg/mL. Further, the “QC MIC range” value in experiment [2] is “B (QC MIC range is 2-8) μg/ml”.

Take `CC[C@H]1OC(=O)[C@H](C)[C@@H](O[C@H]2C[C@@](C)(OC)[C@@H](O)[C@H](C)O2)[C@H](C)[C@@H](O[C@@H]2O[C@H](C)C[C@H](N(C)C)[C@H]2O)[C@](C)(O)C[C@@H](C)CN(C)[C@H](C)[C@@H](O)[C@]1(C)O` [Azi, azithromycin]: in experiment [1], the “susceptibility of the majority of isolates by MIC90 values” is on record as “susceptible” and the MIC 50 worked out at 2 µg/mL (≈ 2.67 µM). The “QC MIC range” value in experiment [2] is given as “A (QC MIC range is 1-4) μg/ml”.

In the case of `CO/N=C(\C(=O)N[C@@H]1C(=O)N2C(C(=O)[O-])=C(C[N+]3(C)CCCC3)CS[C@H]12)c1csc(N)n1` [Cefepime], the “susceptibility of the majority of isolates by MIC90 values” in [1] is given as “susceptible”. Moreover, the MIC 50 was 0.125 µg/mL (≈ 0.26 µM) in experiment [1]; 32 µg/mL (≈ 66.6 µM) with Acinetobacter baumannii [3] (Acinetobacter); 32 µg/mL (≈ 66.6 µM) against Acinetobacter baumannii [3] (Acinetobacter baumannii); 2 µg/mL (≈ 4.16 µM) with Pseudomonas aeruginosa [4]; 32 µg/mL (≈ 66.6 µM) against Burkholderia cenocepacia (Burkholderia cenocepacia); over 32 µg/mL in experiment [5] (Stenotrophomonas). Besides, the “QC MIC range” value in experiment [2] is given as “C (QC MIC range is 0.5-2) μg/ml”. Further, the “MIC 90” value against Acinetobacter baumannii [3] (Acinetobacter) is over 32 µg/mL; with Acinetobacter baumannii [3] (Acinetobacter baumannii), over 32 µg/mL; in the experiment on Pseudomonas aeruginosa [4] it was 32 µg/mL (≈ 66.6 µM); against Burkholderia cenocepacia (Burkholderia), over 32 µg/mL; against Burkholderia cenocepacia (Burkholderia cenocepacia), over 32 µg/mL; in experiment [5] (Stenotrophomonas) it was over 32 µg/mL. The values for the MIC 90 in experiment [5] (Stenotrophomonas maltophilia) and in [6] were over 32 µg/mL and at least 2 µg/mL, respectively. For the same compound, the MBC in experiment [6] (read-out: MBC90) was over 32 µg/mL.

Consider `CCC[C@@H]1C[C@@H](C(=O)N[C@@H]([C@H]2O[C@H](SC)[C@H](O)[C@@H](O)[C@H]2O)[C@H](C)Cl)N(C)C1` [Cli, clindamycin], for which the MIC 50 in [1] was found to be 16 µg/mL (≈ 37.6 µM).

For `O=C(O)CN(CCN(CC(=O)O)CC(=O)O)CC(=O)O` [EDTA, ethylenediaminetetraacetic acid], the “number of strains inhibited by EDTA alone” value with Acinetobacter baumannii [7] is recorded as 3; in experiment [8] it was 5. In addition, the “EDTA concentration inhibiting growth of H. influenzae” value in [1] (EDTA alone) is recorded as at least 2 mM.

On to `C[C@@H](O)[C@H]1C(=O)N2C(C(=O)O)=C(SCCN=CN)C[C@H]12` [Imipenem], for which, in [5] (Stenotrophomonas), the “MIC 50” value is over 32 µg/mL. Moreover, in [6], the MIC 90 is at least 2 µg/mL.

`CN(C)[C@@H]1C(O)=C(C(N)=O)C(=O)[C@@]2(O)C(O)=C3C(=O)c4c(O)cccc4[C@@](C)(O)[C@H]3C[C@@H]12` [Tetracycline] gave an MIC 50 in [1] of 2 µg/mL (≈ 4.5 µM).

`O=[N+]([O-])[O-].[Ag+]` [silver nitrate]: the “MIC50 (15)” value in experiment [9] (MBC analysis table) was determined as 2.5 ng/mL; in [9], 0.31 ng/mL. For the same compound, the “MIC50(26)” value in experiment [9] (MBC analysis table) is over 10 ng/mL; in [9], 0.63 ng/mL. The MIC 90 in experiment [9] (clinical isolates of MRSA) was determined as 0.00063%.

Turning to `CN[C@H](CC(C)C)C(=O)N[C@H]1C(=O)N[C@@H](CC(N)=O)C(=O)N[C@H]2C(=O)N[C@H]3C(=O)N[C@H](C(=O)N[C@H](C(=O)O)c4cc(O)cc(O)c4-c4cc3ccc4O)[C@H](O)c3ccc(c(Cl)c3)Oc3cc2cc(c3O[C@@H]2O[C@H](CO)[C@@H](O)[C@H](O)[C@H]2O[C@H]2C[C@](C)(N)[C@H](O)[C@H](C)O2)Oc2ccc(cc2Cl)[C@H]1O` [vancomycin], in [9] (clinical isolates of MRSA), the “bactericidal activity (MBC90 compared to MIC90)” value is “bactericidal”.

In the case of Gentamicin, the “MIC Range” value with Pseudomonas aeruginosa [10] is reported as “<=2-4”.
